The text below walks through data of patent publication US7041701B2, “Triterpenoid derivatives” (Univerzita Palackeho V Olomouci, priority 2000, dated 2006).

In test [1] the test system is B16 mouse melanoma. The experiment in a line: MTT cytotoxicity assay, B16. The conditions noted are these: Mus musculus, 72 hours, read-out: TCS50. Type of test: cell-based. The text has this:
(§1) One of the parameters used as the basis for colorimetric assays is the metabolic activity of viable cells. For example, a microtiter assay which uses the tetrazolium salt MTT is now widely used to quantitate cell proliferation and cytotoxicity [Hajdúch M, Mihál V, Minarík J, Fáber E, Safárová M, Weigl E, Antálek P.: Cytotechnology, 1996, 19, 243–245]. For instance, this assay is used in drug screening programs and in chemosensitivity testing. Because tetrazolium salts are cleaved only by metabolically active cells, these assays exclusively detect viable cells. In the case of the MTT assay, yellow soluble tetrazolium salt is reduced to a coloured water-insoluble formazan salt. After it is solubilized, the formazan formed can easily and rapidly be quantified in a conventional ELISA plate reader at 570 nm (maximum absorbancy). The quantity of reduced formazan corresponds to the number of vital cells in the culture. […]
(§2) The cell suspensions that were prepared and diluted according to the particular cell type and the expected target cell density (2,500–30,000 cells per well based on cell growth characteristics) were added by pipette (80 μl) into 96/well microtiter plates. […] Usually, test compounds were evaluated at six 4-fold dilutions. […] The tumour cell survival (TCS) was calculated using the following equitation: TCS=(ODdrug exposed well/mean ODcontrol wells)×100%. […]
In general terms: Tetrazolium assays rely on reduction of a dye to a coloured formazan, in cell work by metabolically active cells.

Test [2] has as its system B16F mouse melanoma, metastatic. The test can be described thus: MTT cytotoxicity assay, B16F. The format is cell-based. The conditions noted are these: Mus musculus, 72 hours, read-out: TCS50.
From the text: as §1, §2

The subject of test [3] is SW620 human colon cancer, metastasis. The test can be described thus: MTT cytotoxicity assay, SW620. The format is cell-based. The conditions noted are these: Homo sapiens, SW-620, 72 hours, read-out: TCS50.
From the text: as §1, §2

Test [4] deals with U87MG human glioblastoma. The experiment in a line: MTT cytotoxicity assay, U87MG. The format is cell-based. The conditions noted are these: Homo sapiens, U-87 MG, 72 hours, read-out: TCS50.
From the text: as §1, §2

Test [5] deals with HepG2 human hepatocellular carcinoma. The experiment in a line: MTT cytotoxicity assay, HepG2. The format is cell-based. The conditions noted are these: Homo sapiens, 72 hours, read-out: TCS50.
From the text: as §1, §2

Test [6] relates to U2OS human osteosarcoma, p53+/−, Rb+/−. The test can be described thus: MTT cytotoxicity assay, U2OS. The conditions noted are these: Homo sapiens, 72 hours, read-out: TCS50. Type of test: cell-based.
From the text: as §1, §2

The test system of test [7] is Saos2 human, p53−/−, Rb−/−. The experiment in a line: MTT cytotoxicity assay, Saos2. The conditions noted are these: Homo sapiens, SAOS-2, 72 hours, read-out: TCS50. The format is cell-based.
From the text: as §1, §2

Test [8] concerns BT549 human breast cancer, p53mut/mut. The experiment in a line: MTT cytotoxicity assay, BT549. The format is cell-based. The conditions noted are these: Homo sapiens, BT-549, 72 hours, read-out: TCS50.
From the text: as §1, §2

Test [9] deals with HT-29 human colon cancer. The test can be described thus: MTT cytotoxicity assay, HT-29. The format is cell-based. The conditions noted are these: Homo sapiens, 72 hours, read-out: TCS50.
From the text: as §1, §2

Test [10] concerns Caco-2 human colon cancer. The test can be described thus: MTT cytotoxicity assay, Caco-2. Type of test: cell-based. The conditions noted are these: Homo sapiens, 72 hours, read-out: TCS50.
From the text: as §1, §2

Test [11] deals with MEL-3 human melanoma. The experiment in a line: MTT cytotoxicity assay, MEL-3. Type of test: cell-based. The conditions noted are these: Homo sapiens, 72 hours, read-out: TCS50.
From the text: as §1, §2

For test [12], the system named is human normal lymphocytes. The experiment in a line: MTT cytotoxicity assay, normal lymphocytes. Type of test: cell-based. The conditions noted are these: Lymphocyte, 72 hours, read-out: TCS50.
From the text: as §1, §2

The subject of test [13] is NIH3T3 mouse immortalised fibroblasts. The experiment in a line: MTT cytotoxicity assay, NIH3T3. Type of test: cell-based. The conditions noted are these: Mus musculus, 72 hours, read-out: TCS50.
From the text: as §1, §2

Test [14] deals with K562 human promyelocytic leukemia. The test can be described thus: MTT cytotoxicity assay, K562. Type of test: cell-based. The conditions noted are these: Homo sapiens, 72 hours, read-out: TCS50.
From the text: as §1, §2

The subject of test [15] is K562-CdA human promyelocytic leukemia, cladrubin resistant. The experiment in a line: MTT cytotoxicity assay, K562-CdA. The format is cell-based. The conditions noted are these: Homo sapiens, 72 hours, read-out: TCS50.
From the text: as §1, §2

In test [16] the test system is K562-GEM human promyelocytic leukemia, gemcitabin resistant. The test can be described thus: MTT cytotoxicity assay, K562-GEM. Type of test: cell-based. The conditions noted are these: Homo sapiens, 72 hours, read-out: TCS50.
From the text: as §1, §2

Test [17] has as its system K562-ARA-C human promyelocytic leukemia, cytarabin resistant. The test can be described thus: MTT cytotoxicity assay, K562-ARA-C. The format is cell-based. The conditions noted are these: Homo sapiens, 72 hours, read-out: TCS50.
From the text: as §1, §2

The subject of test [18] is K562-FLUD human promyelocytic leukemia, fludarabin resistant. The test can be described thus: MTT cytotoxicity assay, K562-FLUD. The format is cell-based. The conditions noted are these: Homo sapiens, 72 hours, read-out: TCS50.
From the text: as §1, §2

Test [19] relates to CEM human T-lymphoblastic leukemia. The experiment in a line: MTT cytotoxicity screening assay, CEM. Type of test: cell-based. The source says: One of the parameters used as the basis for colorimetric assays is the metabolic activity of viable cells. For example, a microtiter assay which uses the tetrazolium salt MTT is now widely used to quantitate cell proliferation and cytotoxicity [Hajdúch M, Mihál V, Minarík J, Fáber E, Safárová M, Weigl E, Antálek P.: Cytotechnology, 1996, 19, 243–245]. For instance, this assay is used in drug screening programs and in chemosensitivity testing. Because tetrazolium salts are cleaved only by metabolically active cells, these assays exclusively detect viable cells. In the case of the MTT assay, yellow soluble tetrazolium salt is reduced to a coloured water-insoluble formazan salt. After it is solubilized, the formazan formed can easily and rapidly be quantified in a conventional ELISA plate reader at 570 nm (maximum absorbancy). The quantity of reduced formazan corresponds to the number of vital cells in the culture.
Human T-lymphoblastic leukaemia cell line CEM was used for routine screening of these compounds. […] The cells were maintained in Nunc/Corning 80 cm^2 plastic tissue culture flasks and cultured in cell culture medium (DMEM with 5 g/l glucose, 2 mM glutamine, 100 U/ml penicillin, 100 μg/ml streptomycin, 10% foetal calf serum and sodium bicarbonate). Individual compounds were dissolved in 10% diiethylsulfoxide/saline, pH 8.0.
The cell suspensions that were prepared and diluted according to the particular cell type and the expected target cell density (2,500–30,000 cells per well based on cell growth characteristics) were added by pipette (80 μl) into 96/well microtiter plates. Inoculates were allowed a pre-incubation period of 24 hours at 37° C. and 5% CO2 for stabilisation. Four-fold dilutions of the intended test concentration were added at time zero in 20 μl aliquots to the microtiter plate wells. Usually, test compounds were evaluated at six 4-fold dilutions. In routine testing, the highest well concentration was 250 μM, but it may differ, depending on the agent. All drug concentrations were examined in duplicate. Incubations of cells with the test compounds lasted for 72 hours at 37° C., in 5% CO2 atmosphere and 100% humidity. At the end of the incubation period, the cells were assayed by using the MTT assay. […] After this incubation period, formazan was solubilized by the addition of 100 μl/well of 10% SDS in water (pH=5.5) followed by further incubation at 37° C. overnight The optical density (OD) was measured at 540 nm with the Labsystem iEMS Reader MF(UK). The tumour cell survival (TCS) was calculated using the following equitation: TCS=(ODdrug exposed well/mean ODcontrol wells)×100%. The TCS50 value, the drug concentration lethal to 50% of the tumour cells, was calculated from the obtained dose response curves. […]

The subject of test [20] is CEM-DNR 1/C2 human T-lymphoblastic leukemia, daunorubicin resistant. The experiment in a line: MTT cytotoxicity assay, CEM-DNR 1/C2. The format is cell-based. The conditions noted are these: Homo sapiens, 72 hours, read-out: TCS50.
From the text: as §1, §2

Test [21] relates to CEM-DNR bulk human T-lymphoblastic leukemia, daunorubicin resistant. The experiment in a line: MTT cytotoxicity assay, CEM-DNR bulk. The conditions noted are these: Homo sapiens, 72 hours, read-out: TCS50. The format is cell-based.
From the text: as §1, §2

Test [22] relates to CEM-VCR 1/F3 human T-lymphoblastic leukemia, vincristin resistant. The test can be described thus: MTT cytotoxicity assay, CEM-VCR 1/F3. The format is cell-based. The conditions noted are these: Homo sapiens, 72 hours, read-out: TCS50.
From the text: as §1, §2

Test [23] has as its system CEM-VCR 3/D5 human T-lymphoblastic leukemia, vincristin resistant. The experiment in a line: MTT cytotoxicity assay, CEM-VCR 3/D5. Type of test: cell-based. The conditions noted are these: Homo sapiens, 72 hours, read-out: TCS50.
From the text: as §1, §2

For test [24], the system named is CEM-VCR bulk human T-lymphoblastic leukemia, vincristin resistant. The test can be described thus: MTT cytotoxicity assay, CEM-VCR bulk. The format is cell-based. The conditions noted are these: Homo sapiens, 72 hours, read-out: TCS50.
From the text: as §1, §2

Test [25] concerns H3 histone (Lys9). The test can be described thus: Histone acetylation, Western blot in CEM cells. The format is cell-based, human. On the procedure:
CEM cells were cultured in Dulbeco's modified essential medium with 4.5 g dextrose/l, 10% of foetal calf serum, 2 mM glutamine, 100 U/ml penicillin and 100 μg/ml streptomycin with/without the indicated concentrations of HDAC inhibitor TSA or I.3. At selected time points, cells were harvested, washed in ice cold Hank's balanced salt solution and solubilized on ice using SDS-PAGE sample buffer containing protease and phosphatase inhibitors (10 μg/ml of leupeptin, 10 μg/ml of aprotinin, 10 μg/ml of soybean trypsin inhibitor, 100 μmol of benzamide, 1 mM of sodium vanadate, 1 mM of NaF, 1 mM of phenylphosphate) and boiled immediately.
Total cellular proteins (100 μg/well) were separated on SDS-PAGE electrophoresis, blotted on polyvinyldifluoride membranes and acetylated histone was detected using a anti-acetyl(Lys9)-histone H3 rabbit polyclonal antibody (Cell Signalling Technology, Beverly, Mass.; Cat# 9671L) and visualized by chemilumniuscence (ECL-Western Blotting System, Amersham). Details of the Western blot technique are described in Ausubel, F. M., Brent, R, Kingston, R. E., Moore, D. D., Seidman, J. G., Smith, J. A., Struhl, K. (Eds): Short Protocols in Molecular. Biology, 2nd edition, John Wiley & Sons, New York, Chichester, Brisbane, Toronto, Singapore, 1992, page 10–33–10–35.
In general terms: Immunoblotting shows a protein as a band on a membrane.

Test [26] deals with human SK-N-AS neuroblastoma. The test can be described thus: In vivo activity in xenotransplanted human neuroblastoma. More on the design: species or system CD-1/Ctrl-1 nu/nu nude female mice. The conditions noted are these: cisplatin 4 mg/kg subcutaneously 1×D1; SK-N-AS in nude mice (FIG. 2). On the procedure: Human neuroblastoma SK-N-AS cell line was obtained from ATTC. The line was cultured in Dulbeco's modified essential medium with 4.5 g dextrose/l, 10% of foetal calf serum, 2 mM glutamine, 100 U/ml penicillin and […] streptomycin. For transplantation purposes, only the cells in log phase were used.
CD-1/Ctrl-1 nu/nu nude female mice, 8 weeks old, 18–22 g weight were used in this study (IffaCredo, France). Animals were inoculated with 5.10^6 tumour cells subcutaneously into right inquinal region. Following transplantation, tumor growth was measured in both the control/vehicle and the treated groups using calipers. Tumor volume (TV) was calculated as follows: TV=(a^2×b)/2, where a is width and b is length The statistical significance was evaluated using a […].
Cisplatin (Platidiam 10 inj, sicc., Lachema, Czech Republic) was used as a control drug in this experiment. It was diluted in apyrogenic water and applied to animals in a final volume of 0.18 ml subcutaneously at day 1.
I.3 was synthesised as described above. It was suspended at 10 mg/ml in 5% dextrose and pH was adjusted to 8.0 with sodium hydroxide. vehicle: 5% dextrose with pH adjusted to 8.0 with sodium hydroxide. […]

Where two headings read alike, the source gives them in different places.

`C=C(C)[C@@H]1CC[C@]2(C(=O)O)CC[C@]3(C)[C@H](CC[C@@H]4[C@@]5(C)CC[C@H](O)C(C)(C)[C@@H]5CC[C@]43C)[C@@H]12` [Betulinic acid, betulinic acid, reference compound]: the IC50 is 36 µM in test [1]; 4.6 µM in test [2]; 250 µM in test [3]; 250 µM in test [4]; 3.6 µM in [5]; 250 µM in test [6]. Moreover, the IC50 in test [7] stood at 250 µM; in test [8], 250 µM; in test [9], 250 µM; in test [10] it was 20 µM; in test [11], 2.7 µM; in [12], 250 µM. For the same compound, the IC50 worked out at 250 µM in test [13]; 250 µM in test [14]; 250 µM in [15]; 101 µM in test [16]; 250 µM in test [17]; 250 µM in test [18]. In addition, the IC50 in test [19] (Homo sapiens, CEM, MTT assay, 72 hours, read-out: TCS50) is 250 µM; in test [20], 250 µM; in test [21] it was 250 µM; in test [22], 19 µM; in test [23] it was 24 µM; in test [24], 69 µM.
As for `CC(/C=C/C(=O)NO)=C\[C@@H](C)C(=O)c1ccc(N(C)C)cc1` [TSA, trichostatin A, reference compound], the IC50 in test [19] (CEM cells, as stated in the histone acetylation study, read-out: IC50) was determined as 0.24 µM. In addition, the “increase of histone acetylation” value in [25] (0.24 μM (IC50)) was “no significant ability to increase histone acetylation”. For the same compound, the “acetylation of H3 histone in Lys9 position” value in [25] (Western blot (FIG. 5)) is “rapidly acetylated”.
Turning to `N.N.[Cl][Pt][Cl]` [cisplatin, Cisplatin, reference compound], the “tumor growth (tumor volume)” value in test [26] is “no significant activity”.
